One data set has as its target T1, Lxrα (Homo sapiens, UniProt Q13133).
T1 construct: expressed in transfected cells; host or cells: SN4741 mouse neuronal cell line
T1 sequence (Q13133 1-447): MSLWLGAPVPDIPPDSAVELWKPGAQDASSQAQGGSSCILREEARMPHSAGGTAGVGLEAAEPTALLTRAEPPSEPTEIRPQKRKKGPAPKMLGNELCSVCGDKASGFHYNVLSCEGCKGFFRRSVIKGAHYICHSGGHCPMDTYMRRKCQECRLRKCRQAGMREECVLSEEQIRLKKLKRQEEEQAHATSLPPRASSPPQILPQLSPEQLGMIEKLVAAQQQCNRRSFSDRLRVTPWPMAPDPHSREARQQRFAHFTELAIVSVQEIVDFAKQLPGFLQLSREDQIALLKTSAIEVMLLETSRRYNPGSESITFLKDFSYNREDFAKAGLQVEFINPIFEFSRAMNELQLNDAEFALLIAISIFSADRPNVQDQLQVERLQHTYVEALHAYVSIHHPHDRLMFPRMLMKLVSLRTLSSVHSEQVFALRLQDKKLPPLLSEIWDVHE
Nature of the data set: Lxrα luciferase reporter assay in SN4741 neural cells. The conditions noted are these: 10 μM, 24 h. Format: cell-based, mouse. An excerpt: (§1) Luciferase Reporter Assay.

The target in the next data set is T2, Lxrβ (Homo sapiens, UniProt P55055).
T2 construct: expressed in transfected cells; host or cells: SN4741 mouse neuronal cell line
T2 sequence (P55055 1-460): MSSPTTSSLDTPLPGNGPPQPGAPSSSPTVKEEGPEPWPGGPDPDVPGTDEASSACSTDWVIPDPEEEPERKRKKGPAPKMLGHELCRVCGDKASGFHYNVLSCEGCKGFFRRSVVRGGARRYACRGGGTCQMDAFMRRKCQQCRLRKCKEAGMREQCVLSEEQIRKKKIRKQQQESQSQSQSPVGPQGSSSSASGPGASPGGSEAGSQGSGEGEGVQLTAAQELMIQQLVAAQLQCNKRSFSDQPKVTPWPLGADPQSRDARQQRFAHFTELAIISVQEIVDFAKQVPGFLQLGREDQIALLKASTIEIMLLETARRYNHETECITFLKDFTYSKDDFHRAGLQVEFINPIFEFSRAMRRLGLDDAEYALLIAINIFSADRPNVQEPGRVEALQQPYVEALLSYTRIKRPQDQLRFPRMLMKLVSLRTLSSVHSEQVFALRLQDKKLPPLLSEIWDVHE
The experiment in a line: Lxrβ luciferase reporter assay in SN4741 neural cells. The conditions noted are these: for Lxrβ activation, luciferase activity (fold activation): SN4741 cells, 10 μM, 24 h. Type of data set: cell-based, mouse.
From the text: as §1

The target of another data set is T3, Lxrβ-LBD (Homo sapiens, UniProt P55055).
T3 construct: the Lxrβ-LBD tagged with glutathione-S-transferase (GST); purchased Invitrogen
T3 sequence (P55055 222-460 limits assumed): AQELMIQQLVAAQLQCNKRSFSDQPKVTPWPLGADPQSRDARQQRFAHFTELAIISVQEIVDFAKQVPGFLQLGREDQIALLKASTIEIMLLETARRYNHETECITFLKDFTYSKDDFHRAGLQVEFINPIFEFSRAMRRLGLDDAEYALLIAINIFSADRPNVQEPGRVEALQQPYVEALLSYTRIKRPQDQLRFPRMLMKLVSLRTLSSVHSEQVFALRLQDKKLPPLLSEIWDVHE
The experiment in a line: Lanthascreen TR-FRET Lxrβ coactivator assay. Format: binding. An excerpt: Lxrβ Ligand Binding Assay. For Lxrβ ligand binding activity measurement, the applicants used the Lanthascreen™ TR-FRET Lxrβ Coactivator Assay (Invitrogen). The assay uses a terbium (Tb)-labeled anti-GST antibody, a fluorescein-labeled coactivator peptide and the Lxrβ-LBD tagged with glutathione-S-transferase (GST). Binding of the agonist/ligand to Lxrβ-LBD causes a conformational change that result in an increase in the affinity of the Lxrβ for the coactivator peptide. The close proximity of the fluorescently labeled coactivator peptide to the Tb-labeled antibody causes an increase in the TR-FRET signal intensity. The TR-FRET ratio of 520/495 was calculated using a Victor multi label reader with an excitation wavelength of 340 nm and emission wavelengths of 520 nm and 495 nm, The activational capacity of potential ligands was tested in a […] polypropylene plate, following the manufacturer's protocol.

For data set [1], the system named is Abca1, Abcg1 and Srebf1 transcript levels. Nature of the data set: Quantitative PCR of Lxr target genes in SN4741 cells. Type of data set: cell-based, mouse. The conditions noted are these: 3 h. How it is done:
(§2) Quantitative PCR, Total RNA was extracted from SN4741. cells and zebrafish treated with the compounds of interest using the RNeasy Mini Kit (Qiagen), 1 μg was treated with RQ1 RNase-free DNase (Promega) and reverse transcribed using SuperScript II Reverse Transcriptase (invitrogen) and random primers (invitrogen) (RT+reaction). Parallel reactions without reverse transcriptase enzyme were done as a control (RT−reaction), and Sybergreen real-time quantitative PCR assays were performed. Expression levels were obtained by normalization with the Value of the housekeeping gene encoding actin obtained for every sample in parallel assays.

The subject of the next data set is zebrafish embryos. The experiment in a line: Survival of transgenic zebrafish embryos on compound exposure. Type of data set: in vivo. The procedure:
(§3) Zebrafish Strain and Maintenance Zebrafish were raised on a 14/10 h day/night cycle and were kept at 28.5 ° C. Islet-1:GFP transgenic embryos were obtained via natural spawning and staged in hours or days post fertilization (hpf and dpt) according to Kimmel et al). Embryos older than 24 hpf were treated with 0.03% phenylthiourea (PTU) to inhibit pigmentation. MO injections were performed using splice site specific zebrafish lxi MO MO injected embryos were immediately dechorionated and transferred to a 96 well plate and exposed to dimethyl sulfoxide (DMSO) treated or ligand treated medium. Compound Exposure. Islet-1:GFP embryos were collected by natural mating and immediately (at 1 cell stage) dechorionated and transferred to a 96 well plate. Each of the compounds tested were obtained as 10 mM stock and diluted in embryo medium to a final concentration of 10 μM, and 200 μL was added to each well. DMSO or propan-2-ol treated embryo medium was taken as control. Ligand solutions were replaced every 12 h with fresh ligand solution prepared in PTU treated embryo medium. Embryos were collected at 48 hpf, fixed for 4 h at room temperature with 4% paraformaldehyde and then washed and kept in PBST. Immunocytochemistry was performed using an anti-GFP antibody and fluorescence was viewed and photographed using a Zeiss Axioplan compound microscope and a Zeiss Axiocam digital camera.

The test system of data set [2] is Islet1+ oculomotor neurons. Nature of the data set: Islet1+ cells in mouse E11.5 brain primary cultures. Type of data set: cell-based. The conditions noted are these: for Number of Islet1+ cells / Concentration giving significant difference from vehicle in Islet1+ cells: wild type cultures; for Concentration giving significant difference from vehicle in Islet1+ cells: p<0.05. How it is done: (§4) Primary Brain Cultures. Brains from E11.5 mice were manually dissected, plated on poly-D-lysine (150,000 cells/cm^2) and grown in serum-free N2 media consisting of 1:1 mixture of F12 and DMEM with 10 ng/mL insulin, 100 μg/mL apo-transferrin, 100 μM putrescine, 20 nM progesterone, 30 nM selenium, 6 mg/mL glucose, and 1 mg/mL BSA. Cells were treated for 3 days in vitro (DIV) with the compounds of interest, fixed with 4% PFA and processed for staining using appropriate antibodies.
(§5) Antibodies and Detection Procedures. Cells were fixed in 4% PFA, washed in PBS and blocked in 5% normal goat serum/PBS for 1 h at room temperature. Primary antibodies were diluted in PBS (pH 7.4), 0.3% Triton X-100, 1% BSA and incubations were carried out overnight at +4° C. or at room temperature for 2 h. The antibodies used were anti-:BrdU (1:400; Abeam), Islet-1 (1:100: Developmental Studies Hybridoma Bank), cleaved caspase-3 (Aspt 75) (1:100; Cell Signaling Technology), tyrosine hydroxylase (TH; 1:1000; Pel-Freeze) GABA (1:1,000; Sigma), Bm3a (1:250; Millipore), Nkx6.1 (1:200; Novus Biologicals), choline acetyltransferase (ChAT; 1:500; Millipore) and appropriate secondary antibodies (Jackson ImmunoResearch or Alexa). Cells positive for the corresponding marker were counted directly at the microscope at a magnification of 20×. Cells were counted in every well, in eight consecutive fields (going from one side of the well to the other, passing through the center), in three different wells per experiment and in three different experiments per condition. Random pictures of the wells were taken for every condition to document the result, and representative pictures were subsequently selected to represent the quantitative data. Photos were acquired with a Zeiss Axioplan microscope and a Hamamatsu camera C4742-95 using the Openlab software.

The next data set concerns active caspase 3+ cells. The experiment in a line: Active caspase 3+ cells in mouse E11.5 brain primary cultures. Format: cell-based. Conditions: for Number of active caspase-3+ cells: wt cultures, 3β,7α-diHCA, 3βH,7O-CA, 25-HC at 10 μM, toxic acids at low concentrations. The procedure:
as §4, §5

For another data set, the system named is Islet-1. Nature of the data set: Islet-1 expression in Tg[Isl1:GFP] zebrafish embryos. Format: in vivo. Conditions: 10 μM. The procedure: as §2, §3
A further data set concerns abca1. Nature of the data set: abca1 expression in zebrafish embryos. Conditions: 10 μM. Type of data set: in vivo. How it is done:
as §2
Zebrafish Strain and Maintenance Zebrafish were raised on a 14/10 h day/night cycle and were kept at 28.5 ° C. Islet-1:GFP transgenic embryos were obtained via natural spawning and staged in hours or days post fertilization (hpf and dpt) according to Kimmel et al). Embryos older than 24 hpf were treated with 0.03% phenylthiourea (PTU) to inhibit pigmentation. […] Immunocytochemistry was performed using an anti-GFP antibody and fluorescence was viewed and photographed using a Zeiss Axioplan compound microscope and a Zeiss Axiocam digital camera.

Data set [3] relates to TH+ dopamine neurons, GABAergic or red nucleus neurons; Nkx6.1+ cells. The experiment in a line: Other cell types in mouse E11.5 brain primary cultures. Conditions: data not shown. Format: cell-based. The procedure: as §4, §5

Results on two molecules are retold here after US20190201419A1, “COMPOUND AND METHOD FOR THE TREATMENT AND DIAGNOSIS OF NEURODEGENERATIVE CONDITIONS” (Swansea University, priority 2013, published 2019).

Where only a bound is given, the exact number is not on record here.

Turning to `CC(CCC[C@@H](C)[C@H]1CC[C@H]2[C@@H]3[C@@H](O)C=C4C[C@@H](O)CC[C@]4(C)[C@H]3CC[C@]12C)C(=O)O` (stereo partly drawn) [3β,7β-diHCA, 3β,7β-dihydroxycholest-5-en-26-oic acid], at Lxrα, the “Lxrα activation, luciferase activity (fold activation)” value is reported as “have the ability to activate both Lxrs”. Further, the “Lxr activational capacity in combination with 22R-HC” value at Lxrβ (10 μM acid + 10 μM 22R-HC) is “No additive effect was observed”. In addition, the “Lxrβ activation, luciferase activity (fold activation)” value on Lxrβ is given as “have the ability to activate both Lxrs”. Moreover, the “Competition with the effect of 3β,7α-diHCA in TR-FRET” value at Lxrβ-LBD (3β,7α-diHCA at 10 μM plus increasing concentrations of competitor) was “the effect of 3β,7α-diHCA was reduced to that of the latter acids”. Besides, the “Competitor concentration giving significant difference from 10 μM 3β,7α-diHCA alone in TR-FRET” value on Lxrβ-LBD (p<0.05 vs 10 μM 3β,7α-diHCA) was at least 2. For the same molecule, the “Abca1, Abcg1 and Srebf1 transcript levels” value in data set [1] is recorded as “induced transcription, but to a lesser extent”. Moreover, the “Toxic effect on survival of the fish” value in the data set on zebrafish embryos was “had a deleterious toxic effect which impaired the survival of the fish”. For the same molecule, in data set [2], the “Number of Islet1+ cells” value was “caused the loss of Islet1+ cells in the cultures” and the “Concentration giving significant difference from vehicle in Islet1+ cells” value was at least 2 µM. Also, the “Surviving cells in cultures” value with active caspase 3+ cells (10 μM) is recorded as “no surviving cells were detected”. Besides, the “Concentration at which toxicity is initiated” value in the data set on active caspase 3+ cells (mouse, primary brain cultures from E11.5 mouse embryos, 3 days) was determined as 1000 nM. Moreover, the “Concentration giving significant difference from vehicle in active caspase 3+ cells” value with active caspase 3+ cells (p<0.05) is at least 2 µM. In addition, the “Number of active caspase-3+ cells” value in the data set on active caspase 3+ cells is “increased the number of active caspase-3+ cells”.

As for `CC(CCC[C@@H](C)[C@H]1CC[C@H]2[C@@H]3C(=O)C=C4C[C@@H](O)CC[C@]4(C)[C@H]3CC[C@]12C)C(=O)O` (stereo partly drawn) [3βH,7O-CA, 3β-hydroxy-7-oxocholest-5-en-26-oic acid], the “Lxrα activation, luciferase activity (fold activation)” value at Lxrα is “have the ability to activate both Lxrs”. For the same molecule, at Lxrβ, the “Lxrβ activation, luciferase activity (fold activation)” value is “have the ability to activate both Lxrs”. In addition, in the data set with Islet-1, the “Islet-1 mRNA and protein level (qPCR, western blot)” value is “accompanied by an increase in the level of Islet-1 mRNA and protein”. In the data set on Islet-1 (embryos 48 hpf), the Islet-GFP expression entry was “increased Islet-GFP expression” and the “Number of Islet1+ cells in cranial nerves (III, IV, V, VII, X)” value is “had no significant effect on the number of Islet1+cells”. The “Islet-GFP levels after lxr morpholino injection” value in the data set on Islet-1 (lxr MO vs control scrambled MO) was “lxr MO injections abolished the in vivo increase in Islet-GFP levels”. Further, the abca1 expression result in the data set on abca1 is recorded as “enhanced expression of abca1”. The “Effect on Islet1+ cells in Lxrα−/−β−/− cultures” value in data set [2] (cultures from Lxrα−/−β−/− mice) is given as “eliminated”. In [2], the “Number of Islet1+ cells” value is “increased the number of Islet1+ oculomotor cells in the cultures” and the “Concentration giving significant difference from vehicle in Islet1+ cells” value is at least 10 µM. Also, the “Effect on Islet1+ cells with Lxr antagonist GGPP” value in data set [2] (wt cultures, 10 μM GGPP) was “blocked by the Lxr antagonist GGPP”. Besides, in the data set with active caspase 3+ cells, the “Number of active caspase-3+ cells” value is “did not affect the number of active caspase-3+ cells”. Further, the “Number of other midbrain neurons (TH+ dopamine, GABAergic, red nucleus)” value in data set [3] is given as “did not affect the number of other midbrain neurons”.
